Patent US8937089B2, “Synergistic mixtures of anthranilamide invertebrate pest control agents” (priority 2004, dated 2015)

Experiments:
Test in all cases: whole plant or invertebrate
Type in all cases: in vivo
[1] = system: silverleaf whitefly (Bemisia argentifolii Bellows and Perring); details: Table 2B
Procedure, shortened: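 Whitefly-egg-infested 12–14-day-old cotton plants sprayed with compound in 10% acetone/90% water plus 300 ppm non-ionic surfactant, in triplicate. Plants then held 13 days at 28 °C and 50–70% relative humidity before mortality assessment.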

[2] = system: green peach aphid (Myzus persicae Sulzer); details: Green Peach Aphid
Procedure, shortened: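 Compounds formulated in 10% acetone/water with 300 ppm X-77 surfactant were atomized onto aphid-infested radish seedlings, with three replicates per treatment. Infestation was 30–40 aphids transferred on excised leaf pieces, covering contact and systemic exposure. Test units stayed 6 days in a growth chamber at 19–21 °C and 50–70% relative humidity.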

[3] = system: potato leafhopper (Empoasca fabae Harris); details: alone
Procedure, shortened: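 Bean plants (5–6 days old, one primary leaf excised) were sprayed with 1 mL of compound in 10% acetone/water with 300 ppm X-77 surfactant, 3 replicates. After drying for 1 h, each unit was infested with 5 adult leafhoppers. Units were held 6 days at 19–21 °C and 50–70% RH.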

[4] = system: diamondback moth (Plutella xylostella)
Description: The test compounds were dissolved in water. […] Serial dilutions were made to obtain the appropriate concentrations. To obtain the desired mixture concentrations of each compound, twice the desired concentration of each of the two mixture partner compounds were mixed together in equal volumes.
The diluted solutions of the test compounds were sprayed to run-off on three-week-old tomato plants. The plants were placed on a rotating turntable sprayer (10 rpm). Test solutions were applied using a flat fan air-assisted nozzle (Spraying Systems 122440) at 10 psi (69 kPa). […] The leaves were cut into pieces, which were placed singly into 5.5 cm-by-3.5 cm cells of a sixteen-cell plastic tray. Each cell contained a 2.5-cm square of moistened chromatography paper to prevent desiccation. One insect was placed in each cell. There two trays per treatment. Trays were held in the growth chamber at 25° C., 16-hour light:8-hour dark, 60% relative humidity for 4 days.
For evaluating control of diamondback moth (Plutella xylostella), cabbage (var. Stonehead) plants were grown in Metromix potting soil in 10-cm pots in aluminum trays to test size (28 days, 3-4 full leaves) the plants were sprayed to the point of runoff using the turntable sprayer as described in Test I. Test compounds were formulated and sprayed on test plants as described for Test I. After drying for 2 hours, the treated leaves were excised and infested with one cabbage looper per cell and covered. The test units were placed on trays and put in a growth chamber at 25° C. and 60% relative humidity for 4 days.

[5] = system: cotton melon aphid (Aphis gossypii Glover)
Procedure, shortened: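 Cotton plants (6–7 days old) pre-infested with 30–40 aphids by cut-leaf method, sprayed with compound (ppm) in 10% acetone/90% water with 300 ppm X-77 surfactant, three replicates. Held 6 days at 19–21 °C, 50–70% RH; contact and/or systemic control assessed.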

[6] = system: western flower thrip (Frankliniella occidentalis Pergande); details: single compound, spray, 7 days
Procedure, shortened: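 Compounds in 10% acetone/90% water with 300 ppm non-ionic surfactant were sprayed onto 5- to 7-day-old bean plants, 3 replicates. After 1 h drying, 22–27 adult thrips were added per unit. Units were held 7 days at 25° C, 45–55% RH, assessing contact and/or systemic control.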

[7] = system: corn planthopper (Peregrines maidis); details: Corn Plant Hopper
Procedure, shortened: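 Compounds in 10% acetone/90% water with 300 ppm X-77 surfactant sprayed (3 replications) onto 3- to 4-day-old corn plants, dried 1 h, then infested with 10–20 corn planthopper nymphs aged 18–20 days. Held 6 days at 19-21° C. and 50-70% relative humidity; contact and/or systemic control assessed.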

N#CCNC(=O)c1cnccc1C(F)(F)F [Flonicamid]
% mortality (obs) ([1]; rate 0.1 ppm): 2% | % mortality (obs) ([1]; rate 0.2 ppm): 2% | % mortality (obs) ([1]; rate 0.5 ppm): 2% | % mortality (obs) ([2]; rate 0.1 ppm): 16% | % mortality (obs) ([2]; rate 0.2 ppm): 10% | % mortality (obs) ([2]; rate 2 ppm): 33% | % mortality (obs) ([3]; rate 100 ppm): 100% | % mortality (obs) ([3]; rate 400 ppm): 100% | % mortality (obs) ([3]; rate 1000 ppm): 40% | % mortality (obs) ([4]; rate 1 ppm): 0% | % mortality (obs) ([4]; rate 15 ppm): 60% | % mortality (obs) ([4]; rate 1000 ppm): 30% | % mortality (obs) ([5]; rate 0.2 ppm): 9% | % mortality (obs) ([5]; rate 1 ppm): 46% | % mortality (obs) ([5]; rate 5 ppm): 92% | % mortality (obs) ([6]; rate 10 ppm): 20% | % mortality (obs) ([6]; rate 100 ppm): 80% | % mortality (obs) ([6]; rate 1000 ppm): 70% | % mortality (obs) ([7]; rate 2 ppm): 52% | % mortality (obs) ([7]; rate 15 ppm): 42% | % mortality (obs) ([7]; rate 150 ppm): 90%

Dieldrin
% mortality (obs) ([1]; rate 10 ppm): 0% | % mortality (obs) ([1]; rate 100 ppm): 0% | % mortality (obs) ([1]; rate 1000 ppm): 0% | % mortality (obs) ([2]; rate 10 ppm): 59% | % mortality (obs) ([2]; rate 100 ppm): 43% | % mortality (obs) ([2]; rate 1000 ppm): 41% | % mortality (obs) ([3]; rate 2.5 ppm): 27% | % mortality (obs) ([3]; rate 5 ppm): 100% | % mortality (obs) ([3]; rate 10 ppm): 100% | % mortality (obs) ([4]; rate 2 ppm): 90% | % mortality (obs) ([4]; rate 2.5 ppm): 100% | % mortality (obs) ([4]; rate 3 ppm): 100% | % mortality (obs) ([5]; rate 1 ppm): 13% | % mortality (obs) ([5]; rate 5 ppm): 26% | % mortality (obs) ([5]; rate 50 ppm): 66% | % mortality (obs) ([6]; rate 10 ppm): 10% | % mortality (obs) ([6]; rate 100 ppm): 20% | % mortality (obs) ([6]; rate 1000 ppm): 30% | % mortality (obs) ([7]; rate 0.1 ppm): 37% | % mortality (obs) ([7]; rate 0.2 ppm): 57% | % mortality (obs) ([7]; rate 0.3 ppm): 71%

Thiamethoxam
% mortality (obs) ([1]; rate 5 ppm): 15% | % mortality (obs) ([1]; rate 15 ppm): 78% | % mortality (obs) ([1]; rate 30 ppm): 92% | % mortality (obs) ([2]; rate 0.2 ppm): 35% | % mortality (obs) ([2]; rate 0.4 ppm): 94% | % mortality (obs) ([2]; rate 0.6 ppm): 100% | % mortality (obs) ([3]; rate 0.1 ppm): 80% | % mortality (obs) ([3]; rate 0.2 ppm): 100% | % mortality (obs) ([3]; rate 0.4 ppm): 100% | % mortality (obs) ([4]; rate 30 ppm): 90% | % mortality (obs) ([4]; rate 40 ppm): 100% | % mortality (obs) ([4]; rate 50 ppm): 100% | % mortality (obs) ([5]; rate 0.2 ppm): 24% | % mortality (obs) ([5]; rate 0.4 ppm): 48% | % mortality (obs) ([5]; rate 0.6 ppm): 66% | % mortality (obs) ([6]; rate 5 ppm): 20% | % mortality (obs) ([6]; rate 50 ppm): 80% | % mortality (obs) ([6]; rate 250 ppm): 90% | % mortality (obs) ([7]; rate 0.2 ppm): 100% | % mortality (obs) ([7]; rate 0.4 ppm): 100% | % mortality (obs) ([7]; rate 0.6 ppm): 100%

Cc1ccc(/N=C/N(C)/C=N/c2ccc(C)cc2C)c(C)c1 [Amitraz]
mortality at 500 ppm ([1]; Bemisia argentifolii, in Gossypium hirsutum, rate 500 ppm, read-out: % mortality (obs)): 5% | mortality at 1000 ppm ([1]; Bemisia argentifolii, in Gossypium hirsutum, rate 1000 ppm, read-out: % mortality (obs)): 0% | mortality at 2000 ppm ([1]; Bemisia argentifolii, in Gossypium hirsutum, rate 2000 ppm, read-out: % mortality (obs)): 0% | mortality at 10 ppm ([2]; Myzus persicae, in Raphanus sativus, rate 10 ppm, read-out: % mortality (obs)): 16% | mortality at 100 ppm ([2]; Myzus persicae, in Raphanus sativus, rate 100 ppm, read-out: % mortality (obs)): 12% | mortality at 1000 ppm ([2]; Myzus persicae, in Raphanus sativus, rate 1000 ppm, read-out: % mortality (obs)): 34% | mortality at 10 ppm ([3]; Empoasca fabae, rate 10 ppm, read-out: % mortality (obs)): 0% | mortality at 100 ppm ([3]; Empoasca fabae, rate 100 ppm, read-out: % mortality (obs)): 7% | mortality at 1000 ppm ([3]; Empoasca fabae, rate 1000 ppm, read-out: % mortality (obs)): 13% | mortality at 10 ppm ([4]; Plutella xylostella, in Brassica oleracea, rate 10 ppm, read-out: % mortality (obs)): 70% | mortality at 100 ppm ([4]; Plutella xylostella, in Brassica oleracea, rate 100 ppm, read-out: % mortality (obs)): 20% | mortality at 1000 ppm ([4]; Plutella xylostella, in Brassica oleracea, rate 1000 ppm, read-out: % mortality (obs)): 50% | mortality at 10 ppm ([5]; Aphis gossypii, rate 10 ppm, read-out: % mortality (obs)): 20% | mortality at 100 ppm ([5]; Aphis gossypii, rate 100 ppm, read-out: % mortality (obs)): 35% | mortality at 1000 ppm ([5]; Aphis gossypii, rate 1000 ppm, read-out: % mortality (obs)): 29% | mortality at 10 ppm ([6]; Frankliniella occidentalis, 168 h, rate 10 ppm, read-out: % mortality (obs)): 40% | mortality at 100 ppm ([6]; Frankliniella occidentalis, 168 h, rate 100 ppm, read-out: % mortality (obs)): 30% | mortality at 1000 ppm ([6]; Frankliniella occidentalis, 168 h, rate 1000 ppm, read-out: % mortality (obs)): 20% | mortality at 5 ppm ([7]; rate 5 ppm, read-out: % mortality (obs)): 6% | mortality at 10 ppm ([7]; rate 10 ppm, read-out: % mortality (obs)): 3% | mortality at 50 ppm ([7]; rate 50 ppm, read-out: % mortality (obs)): 5%

Spinosad
% mortality (obs) ([1]; rate 100 ppm): 66% | % mortality (obs) ([1]; rate 150 ppm): 69% | % mortality (obs) ([1]; rate 300 ppm): 95% | % mortality (obs) ([2]; rate 10 ppm): 25% | % mortality (obs) ([2]; rate 100 ppm): 46% | % mortality (obs) ([2]; rate 1000 ppm): 59% | % mortality (obs) ([3]; rate 30 ppm): 73% | % mortality (obs) ([3]; rate 100 ppm): 80% | % mortality (obs) ([3]; rate 110 ppm): 47% | % mortality (obs) ([4]; rate 10 ppm): 100% | % mortality (obs) ([4]; rate 100 ppm): 90% | % mortality (obs) ([4]; rate 1000 ppm): 100% | % mortality (obs) ([5]; rate 10 ppm): 16% | % mortality (obs) ([5]; rate 100 ppm): 35% | % mortality (obs) ([5]; rate 1000 ppm): 30% | % mortality (obs) ([6]; rate 0.1 ppm): 20% | % mortality (obs) ([6]; rate 0.5 ppm): 60% | % mortality (obs) ([6]; rate 3 ppm): 90% | % mortality (obs) ([7]; rate 5 ppm): 100% | % mortality (obs) ([7]; rate 10 ppm): 100% | % mortality (obs) ([7]; rate 20 ppm): 100%
